Measured values taken from patent US20070135490A1, “Phenetanolamine derivatives” (priority 2003, published 2007).

The compounds below were run against T1, human beta-2 receptor (Homo sapiens, UniProt P07550) (assay: Chinese hamster ovary cells co-expressing the human receptor with a reporter gene, cAMP measurement in whole cells or membranes (Method 2)). Conditions: CHO cells or membranes, read-out: pEC50 at the human beta-2 receptor (converted).
T1 construct: expressed in transfected cells; host or cells: Chinese hamster ovary cells (whole cells or membranes derived from them)
T1 sequence (P07550 whole entry): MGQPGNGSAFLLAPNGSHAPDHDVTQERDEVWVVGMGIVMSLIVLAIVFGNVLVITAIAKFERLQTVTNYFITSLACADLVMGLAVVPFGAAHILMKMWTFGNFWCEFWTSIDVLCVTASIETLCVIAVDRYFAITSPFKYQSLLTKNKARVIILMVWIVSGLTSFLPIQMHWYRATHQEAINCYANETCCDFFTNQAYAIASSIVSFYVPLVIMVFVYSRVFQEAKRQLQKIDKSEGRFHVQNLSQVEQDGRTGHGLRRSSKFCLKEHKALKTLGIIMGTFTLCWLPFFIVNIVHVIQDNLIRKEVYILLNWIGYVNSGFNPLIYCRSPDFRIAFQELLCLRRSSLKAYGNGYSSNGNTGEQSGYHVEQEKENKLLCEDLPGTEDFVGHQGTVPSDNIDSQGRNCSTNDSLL
Format: cell-based
Procedure: Potency of compounds of the invention at the human beta 2, 1 and 3 receptors was also determined using Chinese hamster ovary cells co-expressing the human receptor with a reporter gene. Studies were performed using either whole cells or membranes derived from those cells.
The three beta-receptors are coupled via the Gs G-protein to cause a simulation of adenylate cyclase resulting in increased levels of cAMP in the cell. For direct cAMP measurements either membranes or cells have been used with either the HitHunter enzyme fragment complementation kit (DiscoveRx) or the FP^2 fluorescence polarisation kit (Perkin Elmer) to quantify the levels of cAMP present. These assays provide a measure of agonist potency and intrinsic activity of the compounds at the various receptors. […]
In this assay the potency of compounds at the human beta-2 receptor is expressed as a pEC50 value. Compounds of examples 12-26, 28-50 and 52-64 had pEC50 values greather than 6. […] No result is available for the compound of example 51.

| EC50 [µM] | Compound |
| --- | --- |
| < 1 | OCc1cc([C@@H](O)CNCCc2cccc(COCCc3ccc(F)cc3)c2)ccc1O [Example 40, Formic acid compound with 4-((1R)-2-{[2-(3-{[2-(4-fluorophenyl)ethoxy]methyl}phenyl)ethyl]amino}-1-hydroxyethyl)-2-(hydroxymethyl)phenol (1:1)] |
| < 1 | NS(=O)(=O)c1cccc(CCCCOCc2cccc(CCNC[C@H](O)c3ccc(O)c(CO)c3)c2)c1 [Example 12, Formic acid compound with 3-[4-({3-[2-({(2R)-2-Hydroxy-2-[4-hydroxy-3-(hydroxymethyl)phenyl]ethyl}amino)ethyl]benzyl}oxy)butyl]benzenesulfonamide (1:1)] |
| < 1 | NC(=O)c1ccc(COCc2cccc(CCNC[C@H](O)c3ccc(O)c(CO)c3)c2)cc1 [Example 54, Formic acid compound with 4-[({3-[2-({(2R)-2-hydroxy-2-[4-hydroxy-3-(hydroxymethyl)phenyl]ethyl}amino)ethyl]benzyl}oxy)methyl]benzamide (1:1)] |
| < 1 | CC(OCCOCc1cccc(CCNC[C@H](O)c2ccc(O)c(CO)c2)c1)c1ccccc1 (stereo partly drawn) [Example 59, Formic acid compound with 2-(hydroxymethyl)-4-((1R)-1-hydroxy-2-{[2-(3-{[2-(1-phenylethoxy)ethoxy]methyl}phenyl)ethyl]amino}ethyl)phenol (1:1)] |
